Data taken from patent publication US20250092418A1, “METHODS OF GENETICALLY ALTERING A PLANT NIN-GENE TO BE RESPONSIVE TO AUXIN” (NIAB, priority 2023, published 2025).

Assays:
[1] = tested on: DgNIN; experiment: Relative expression of DgNIN in D. glomerata roots (real-time PCR, normalized to DgActin); type: in vivo, Datisca glomerata; conditions: 10 days post treatment with 100^−6M NAA
Method: (§1) Germinated seedlings (approx. 4 weeks after germination) are moved to ½MS plates supplemented with 0.5 g/L MES (Merck), 100^−6M NAA, 0.8% agarose (Sigma) and adjusted to pH 5.8. The seedlings were maintained for 10 days under a 16 h-day and 8 h-night cycle at 22-24° C. before harvesting for RNA extraction.
(§2) Each plant root system consisting of transformed root or nodules was harvested and each individual root system formed a biological replicate; 3 or more technical replicates were prepared from each root system having a 100-150 mg sample. RNA was extracted using a modified extraction buffer containing 2% SDS (v/v), 100 mM Tris-HCl pH 8.0, 1.4M NaCl, and 20 mM EDTA. The samples were crushed with tungsten-carbide beads (Qiagen) in a mechanical pulverize (Spex Geno/Grinder®) in the presence of 12 μl/ml β-mercaptoethanol (Sigma) and 50 mg PVPP (Sigma). The powder was resuspended with the extraction buffer followed by treatment with chloroform:iso-amyl alcohol (24:1)(Melford) and chloroform (Sigma). […] The extracted RNA was quantified using a NanoDrop® (Thermo) and then treated for DNase digestion using TURBO DNA-free™ kit (Thermo) using the manufacturer protocol. […] Quantitative real-time polymerase chain reaction (qRT-PCR) was performed in technical replicates using SyGreen mix Lo-ROX (PCR Biosystems) using QuantStudio™ 7 Flex system (ABI) in a total volume of 10 μl. […]

[2] = tested on: DgNIN2; experiment: Relative expression of DgNIN2 in D. glomerata roots (real-time PCR, normalized to DgActin); type: in vivo, Datisca glomerata; conditions: 10 days post treatment with 100^−6M NAA
Method: as §1, §2

[3] = tested on: MtNIN; experiment: Relative expression of MtNIN in M. truncatula roots after auxin analogue treatment; type: in vivo, Medicago truncatula; conditions: exogenous treatment 0.1, 1 or 10 μM for 16 hours and 2 days
Method: Germinated seedlings (approx. 4 days after germination) are moved to FPmod plates supplemented with 0.1 μM, 1 μM, or 10 μM NAA, 0.8% agarose (Sigma), and adjusted to pH 7. The seedlings were maintained for 16 hours and 2 days under 16 h-day and 8 h-night cycle at 24-22° C. before harvesting them for RNA extraction.
Total RNA was reverse-transcribed using SuperScript™ III Reverse Transcriptase (Life Technologies) and anchored dT17 primers as described in the manufacturer's protocol. About 1 μl of cDNA was used to set up real-time RT-qPCR in a […] reaction system with 2×SYBR™ Green PCR master mixes (PCR biosystems) using an ABI Proflex7 Real-Time PCR system. PCR program: 1 cycle at 50° C. for 2 min, 1 cycle at 95° C. for 5 min, and 40 cycles at 95° C. for 30 s and 60° C. for 30s. Expression data were obtained from 3 independent biological repetitions. Calculations were done using the cycle threshold method using MtEF1a, DgActin and FvHistoneH4 as the endogenous control.

[4] = tested on: pDR5:GUS; experiment: pDR5:GUS auxin signaling readout in stable F. vesca lines; type: in vivo, Fragaria vesca; parameters: dose or concentration left out as unconfirmed
Method: Tissue culture plants growing in SMR (approximately 4 weeks after transfer) were moved to ½ Hoagland's media plates supplemented with 100^−6M NAA, 0.8% agarose (Sigma). The plants were maintained for 4 weeks under a 16 h-day and 8 h-night cycle at 22-24° C. before harvesting for phenotyping and RNA extraction.
(§3) For GUS staining the harvested roots were thoroughly cleaned in sterile water and scored under the stereo-fluorescent microscope so that only the transformed roots were harvested for the staining purpose. The roots were fixed in 90% acetone on ice for 1 hour. Subsequently, the acetone was replaced with 50 mM phosphate buffer pH7.2 (Sigma) and the roots were washed twice to remove any acetone. The roots were then moved to the staining solution containing 0.1M Phosphate buffer, 0.25 mM K3[Fe(CN)6](potassium ferricyanide), 0.25 mM K4[Fe(CN)6](potassium ferrocyanide), 0.25% (v/v) Triton X-100 and 1 mM 5-bromo-4-chloro-3-indolyl beta-D-glucuronide (X-Gluc, Thermo). The samples were vacuum infiltrated for 30 minutes and incubated at 37° C. overnight. After staining the tissues were cleared of all the staining solution and stored in 50% ethanol for imaging under the stereomicroscope DX105 F (Leica). […]

[5] = tested on: pDR5:GUS; experiment: pDR5:GUS expression in barley STARTS lines post auxin treatment; type: in vivo, Hordeum vulgare; conditions: 100 μM NAA, 3 weeks post treatment
Method: as §3, with “(Leica). For ruthenium red staining the staining solution was prepared (0.1% ruthenium red in sterile water) and a few microliters are added over each section and subsequently washed using sterile deionized water. For toluidine blue staining, 0.1% toluidine blue staining solution was prepared in deionized water and a few microliters are added over each section and subsequently washed using sterile deionized water.” for “(Leica).”

[6] = tested on: pDgNIN:GUS; experiment: GUS staining of pDgNIN:GUS hairy roots after treatment with LCO / chitin oligomer signaling molecules; type: in vivo, Datisca glomerata; conditions: 24 hours post treatment with 10^−7M
Method: as §3, with “(Leica). For ruthenium red staining the staining solution was prepared (0.1% ruthenium red in sterile water) and a few microliters are added over each section and subsequently washed using sterile deionized water. For toluidine blue staining, 0.1% toluidine blue staining solution was prepared in deionized water and a few microliters are added over each section and subsequently washed using sterile deionized water.” for “(Leica).”

[7] = tested on: pDgNIN2:GUS; experiment: GUS staining of pDgNIN2:GUS hairy roots after treatment with LCO / chitin oligomer signaling molecules; type: in vivo, Datisca glomerata; conditions: 24 hours post treatment with 10^−7M
Method: as §3, with “(Leica). For ruthenium red staining the staining solution was prepared (0.1% ruthenium red in sterile water) and a few microliters are added over each section and subsequently washed using sterile deionized water. For toluidine blue staining, 0.1% toluidine blue staining solution was prepared in deionized water and a few microliters are added over each section and subsequently washed using sterile deionized water.” for “(Leica).”

[8] = tested on: pDR5:NLS-eGFP; experiment: pDR5:NLS-eGFP expression in barley STARTS lines post auxin treatment; type: in vivo, Hordeum vulgare; conditions: 50 μM 2,4D
Method: Tissue culture STARTS plants were grown in rooting media for approximately 4 weeks after transfer, and barley seeds were grown on water-agar plates for seven days after germination, after which seedlings were transferred to 1% Hoagland's media plates. […] The root portion of the plates was covered with aluminum foil. The plants were maintained under a 16 h-day and 8 h-night cycle at 24-22° C. Tissue was harvested four weeks after treatment for phenotyping and RNA extraction.
Auxin treatment was reported to induce nodule like-structures (NLS) in rice (Hiltenbrand et al., 2016). Since it was established in the strawberry system that expressing pDR5:DryasNIN could form NLS with some proto-nodule identity under the influence of auxin, lines in barley (Hordeum vulgare var Golden promise) were raised with the same cassette. To establish the efficacy of the pDR5 promoter in barely system, some transgenics were also raised with pDR5:GUS and pDR5:NLS-eGFP (FIGS. 23A-23F, 24A-24J). In comparison to overexpressing pOsUbi:GUS, pDR5:GUS expression under control condition was very weak (FIGS. 23B-23C).

O=C(O)Cc1cccc2ccccc12 [NAA, 1-naphthalene acetic acid]
increase in the expression of DgNIN as compared to the control treated root samples [1]: ~4 fold
increase in the expression of DgNIN2 as compared to the control treated root samples [2]: ~12 fold
activation of MtNIN expression [3]: differential activation of MtNIN expression
pDR5:GUS staining pattern ([4]; +N+P+NAA): non-specific expression throughout the root system
pDR5:GUS staining pattern ([4]; −N+P+NAA (N limiting condition)): localized GUS staining in the bump like structures
pDR5:GUS staining [5]: GUS staining was visible in the bump-like structures

CC(=O)N[C@H]1[C@H](O[C@H]2[C@H](O)[C@@H](NC(C)=O)[C@H](O[C@H]3[C@H](O)[C@@H](NC(C)=O)[C@H](O[C@H]4[C@H](O)[C@@H](NC(C)=O)C(O)O[C@@H]4CO)O[C@@H]3CO)O[C@@H]2CO)O[C@H](CO)[C@@H](O[C@@H]2O[C@H](CO)[C@@H](O[C@@H]3O[C@H](CO)[C@@H](O[C@@H]4O[C@H](CO)[C@@H](O[C@@H]5O[C@H](CO)[C@@H](O)[C@H](O)[C@H]5NC(C)=O)[C@H](O)[C@H]4NC(C)=O)[C@H](O)[C@H]3NC(C)=O)[C@H](O)[C@H]2NC(C)=O)[C@@H]1O (stereo partly shown) [C08]
GUS staining of pDgNIN:GUS roots [6]: no staining
GUS staining of pDgNIN2:GUS roots [7]: failed to induce any NIN expression

CC(=O)N[C@H]1[C@H](O[C@H]2[C@H](O)[C@@H](NC(C)=O)C(O)O[C@@H]2CO)O[C@H](CO)[C@@H](O[C@@H]2O[C@H](CO)[C@@H](O[C@@H]3O[C@H](CO)[C@@H](O)[C@H](O)[C@H]3NC(C)=O)[C@H](O)[C@H]2NC(C)=O)[C@@H]1O (stereo partly shown) [C04]
GUS staining of pDgNIN:GUS roots [6]: intense staining in the root vasculature and near the root tip
GUS staining of pDgNIN2:GUS roots [7]: did not show staining

O=C(O)CCCc1c[nH]c2ccccc12 [IBA, Indole-3-butyric acid]
activation of MtNIN expression [3]: differential activation of MtNIN expression

O=C(O)COc1ccc(Cl)cc1Cl [2,4D, 2,4-Dichlorophenoxyacetic acid]
activation of MtNIN expression [3]: differential activation of MtNIN expression
pDR5:NLS-eGFP signal [8]: eGFP localization could be seen in the nucleus
